The structures appear in SMILES notation.

The experiment deals with T1, hM2 receptor (Homo sapiens, UniProt P08172).
T1 construct: expressed in transfected cells; membranes prepared
T1 sequence (P08172 1-466): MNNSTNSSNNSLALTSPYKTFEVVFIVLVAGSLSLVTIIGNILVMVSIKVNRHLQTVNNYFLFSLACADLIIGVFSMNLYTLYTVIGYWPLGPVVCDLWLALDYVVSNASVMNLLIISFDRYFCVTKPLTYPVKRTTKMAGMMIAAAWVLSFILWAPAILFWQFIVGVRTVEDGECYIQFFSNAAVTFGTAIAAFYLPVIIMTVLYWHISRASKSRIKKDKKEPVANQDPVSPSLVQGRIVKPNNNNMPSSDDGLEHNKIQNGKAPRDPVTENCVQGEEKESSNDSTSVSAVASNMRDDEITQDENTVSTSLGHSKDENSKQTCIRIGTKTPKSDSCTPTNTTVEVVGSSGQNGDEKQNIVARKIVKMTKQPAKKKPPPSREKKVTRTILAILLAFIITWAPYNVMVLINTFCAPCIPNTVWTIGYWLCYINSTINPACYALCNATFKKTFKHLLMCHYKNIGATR
Description: Blockade of agonist-mediated inhibition of cAMP accumulation. Format: cell-based. Conditions: CHO-K1 cells expressing the hM2 receptor; read-out: Ki for blockade of oxotremorine-inhibition of forskolin-mediated cAMP accumulation. As for the experimental part:
In this assay, the functional potency of a test compound was determined by measuring the ability of the test compound to block oxotremorine-inhibition of forskolin-mediated cAMP accumulation in CHO-K 1 cells expressing the hM2 receptor.
cAMP assays were performed in a radioimmunoassay format using the Flashplate Adenylyl Cyclase Activation Assay System with ^125]-cAMP (NEN SMP004B, PerkinElmer Life Sciences Inc., Boston, Mass.), according to the manufacturer's instructions.
CHO-K1 cells stably expressing cloned human M2 muscarinic receptors were grown to near confluency in a 5% CO2, 37° C. incubator in medium consisting of HAM's F-12 supplemented with 10% FBS (Fetal Bovine Serum) and 250 μg/mL Geneticin. […] The cell pellet was then re-suspended in 10 mL dPBS, and the cells were counted with a Coulter Z1 Dual Particle Counter (Beckman Coulter, Fullerton, Calif.). […]
Reactions were incubated for 10 minutes at 37° C. and stopped by addition of 100 μL ice-cold detection buffer. Plates were sealed, incubated overnight at room temperature and counted the next morning on a PerkinElmer TopCount liquid scintillation counter (PerkinElmer Inc., Wellesley, Mass.). The amount of cAMP produced (pmol/well) was calculated based on the counts observed for the samples and cAMP standards, as described in the manufacturer's user manual. […]

By Ki is commonly meant the dissociation constant of the complex between target and ligand, obtained from inhibition or displacement. Consider `COc1ccncc1CN1CCC(N(CCCCCCCN2CC[C@@H](C(C(N)=O)(c3ccccc3)c3ccccc3)C2)C(C)C)CC1` [Example 1], for which the Ki was below 1 nM.

The values are drawn from patent US7285564B2, “Substituted 4-amino-1-(pyridylmethyl)piperidine and related compounds” (Theravance, Inc., priority 2002, dated 2007).
